From patent publication US20250339409A1, “USES OF PAN BET INHIBITORS” (VYNE THERAPEUTICS INC., priority 2021, published 2025)
Where “and” joins values, the source holds several entries; their conditions need not be identical. Equal entries are not always repeated.

System: anti collagen antibodies induced arthritis (ACAIA)
Assay: Anti collagen antibodies induced arthritis (ACAIA) in mice, intra-articular treatment: paw thickness, arthritis clinical score, body weight;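 further: mouse arthritis induced by IV anti-collagen mAb on day 0 plus IP LPS on day 4, with body weight, caliper paw thickness and 0-4 paw score tracked against a day 0 baseline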
Settings: for Average clinical score per day (untreated): untreated leg
[1] = BETi1 0.1 mg/kg IA (Group 4), Av
[2] = BETi1 0.1 mg/kg IA (Group 4), individual animals, 0.1 mg/kg
[3] = BETi1 1 mg/kg IA (Group 3), individual animals, 1 mg/kg
[4] = BETi1 10 mg/kg IA (Group 2), Av
[5] = BETi1 10 mg/kg IA (Group 2), individual animals, 10 mg/kg

Cn1cc(-c2cccc(O)c2Oc2ccccc2)c2cc[nH]c2c1=O [BETi1]
Weight per day, Day 5 [1]: 18.6 g | Weight per day, Day 6 [1]: 18.1 g | Weight per day, Day 7 [1]: 18.1 g | Weight per day, Day 8 [1]: 17.9 g | Weight per day, Day 10 [1]: 18.1 g | Weight per day, Day 12 [1]: 19.1 g | Weight per day, Baseline [2]: 20.2 g and 21 g and 19.7 g and 21.9 g and 20.3 g and 21.5 g and 18.5 g | Weight per day, Day 3 [2]: 20 g and 21.2 g (2×) and 20.3 g and 22.4 g and 20.6 g and 18.8 g | Weight per day, Day 4 [2]: 20 g and 21.3 g and 18 g and 21.9 g and 20.4 g and 21.4 g and 19.1 g | Weight per day, Day 5 [2]: 18.1 g and 19 g and 16.6 g and 20.5 g and 19.4 g (2×) and 17.4 g | Weight per day, Day 6 [2]: 17.3 g and 18.7 g and 16.5 g and 19.7 g and 18.5 g and 18.9 g and 17.2 g | Weight per day, Day 7 [2]: 17.8 g and 18.8 g (2×) and 16.8 g and 19.5 g and 18.2 g and 16.7 g | Weight per day, Day 8 [2]: 17.5 g and 18.4 g (3×) and 16.7 g and 19.5 g and 16.6 g | Weight per day, Day 10 [2]: 18.2 g and 19 g and 16.8 g (2×) and 19.4 g and 17.7 g and 19.1 g | Weight per day, Day 12 [2]: 18.8 g and 19.9 g and 17.5 g and 20.7 g and 18.7 g and 20.2 g and 18 g | Weight per day, Baseline (BETi1 1 mg/kg IA (Group 3), Av): 20.7 g | Weight per day, Day 3 (BETi1 1 mg/kg IA (Group 3), Av): 20.7 g | Weight per day, Day 4 (BETi1 1 mg/kg IA (Group 3), Av): 21 g | Weight per day, Day 5 (BETi1 1 mg/kg IA (Group 3), Av): 19 g | Weight per day, Day 6 (BETi1 1 mg/kg IA (Group 3), Av): 18.5 g | Weight per day, Day 7 (BETi1 1 mg/kg IA (Group 3), Av): 18.6 g | Weight per day, Day 8 (BETi1 1 mg/kg IA (Group 3), Av): 18.9 g | Weight per day, Day 10 (BETi1 1 mg/kg IA (Group 3), Av): 19.3 g | Weight per day, Day 12 (BETi1 1 mg/kg IA (Group 3), Av): 20.1 g | Weight per day, Baseline [3]: 20.4 g and 22.5 g and 20.3 g and 19.9 g and 21.5 g and 19.7 g and 20.6 g | Weight per day, Day 3 [3]: 20.6 g and 22.1 g and 20.8 g and 19.6 g and 21 g and 19.8 g and 20.9 g | Weight per day, Day 4 [3]: 20.8 g and 22.5 g and 21.1 g and 19.9 g (2×) and 21.7 g and 21 g | Weight per day, Day 5 [3]: 19.1 g and 20.2 g and 19.2 g (2×) and 17.7 g and 17.9 g and 19.5 g | Weight per day, Day 6 [3]: 18.7 g and 18.6 g and 18.8 g (2×) and 18 g and 19.3 g and 17.2 g | Weight per day, Day 7 [3]: 18.3 g and 18.9 g (2×) and 17.8 g and 19.4 g and 17.7 g and 19.2 g | Weight per day, Day 8 [3]: 18.5 g and 19.8 g and 18.8 g and 17.9 g and 19.3 g and 18.2 g and 19.6 g | Weight per day, Day 10 [3]: 18.8 g and 21.3 g and 19 g and 18.6 g and 19.3 g and 18.7 g and 19.2 g | Weight per day, Day 12 [3]: 19.4 g (2×) and 22.5 g and 19.9 g and 19.3 g and 20.1 g (2×) | Weight per day, Baseline [4]: 21.3 g | Weight per day, Day 3 [4]: 21.4 g | Weight per day, Day 4 [4]: 21.5 g | Weight per day, Day 5 [4]: 19.6 g | Weight per day, Day 6 [4]: 19.6 g | Weight per day, Day 7 [4]: 19.5 g | Weight per day, Day 8 [4]: 19.2 g | Weight per day, Day 10 [4]: 19.4 g | Weight per day, Day 12 [4]: 20.2 g | Weight per day, Baseline [5]: 20.2 g and 21.6 g and 20.8 g and 21.7 g and 21.4 g and 22.2 g and 21.3 g | Weight per day, Day 3 [5]: 20.1 g and 21.5 g (2×) and 21.3 g (2×) and 22 g and 21.8 g | Weight per day, Day 4 [5]: 20.2 g and 21.4 g (2×) and 22.4 g and 21.6 g and 21.9 g and 21.7 g | Weight per day, Day 5 [5]: 18.5 g and 20.1 g and 19.3 g and 20.3 g and 19.9 g and 19.4 g | Weight per day, Day 6 [5]: 18.9 g and 19.8 g and 19.2 g and 19.5 g (2×) and 20.4 g | Weight per day, Day 7 [5]: 18.7 g and 19.4 g and 19.5 g and 19.6 g (2×) and 20.3 g | Weight per day, Day 8 [5]: 18.6 g and 19.2 g and 19.6 g and 18.8 g and 20.2 g and 19.1 g | Weight per day, Day 10 [5]: 18.3 g and 19.2 g and 19.8 g and 19.6 g and 20.5 g and 19.3 g | Weight per day, Day 12 [5]: 19.3 g and 20.3 g and 20.4 g and 19.9 g and 21.1 g and 20 g | Average clinical score per day (untreated) (0.01 mg/kg IA (Group 5), Baseline): 0.00 points | Average clinical score per day (untreated) (0.01 mg/kg IA (Group 5), Day 3): 0.00 points | Average clinical score per day (untreated) (0.01 mg/kg IA (Group 5), Day 4): 0.00 points | Average clinical score per day (untreated) (0.01 mg/kg IA (Group 5), Day 5): 0.00 points | Average clinical score per day (untreated) (0.01 mg/kg IA (Group 5), Day 6): 0.86 points | Average clinical score per day (untreated) (0.01 mg/kg IA (Group 5), Day 7): 1.57 points | Average clinical score per day (untreated) (0.01 mg/kg IA (Group 5), Day 8): 1.71 points | Average clinical score per day (untreated) (0.01 mg/kg IA (Group 5), Day 10): 2.14 points | Average clinical score per day (untreated) (0.01 mg/kg IA (Group 5), Day 12): 1.43 points | Average clinical score per day (untreated) (0.1 mg/kg IA (Group 4), Baseline): 0.00 points | Average clinical score per day (untreated) (0.1 mg/kg IA (Group 4), Day 3): 0.00 points | Average clinical score per day (untreated) (0.1 mg/kg IA (Group 4), Day 4): 0.00 points | Average clinical score per day (untreated) (0.1 mg/kg IA (Group 4), Day 5): 0.00 points | Average clinical score per day (untreated) (0.1 mg/kg IA (Group 4), Day 6): 1.14 points | Average clinical score per day (untreated) (0.1 mg/kg IA (Group 4), Day 7): 2.00 points | Average clinical score per day (untreated) (0.1 mg/kg IA (Group 4), Day 8): 2.29 points | Average clinical score per day (untreated) (0.1 mg/kg IA (Group 4), Day 10): 2.57 points | Average clinical score per day (untreated) (0.1 mg/kg IA (Group 4), Day 12): 3.00 points | Average clinical score per day (untreated) (1 mg/kg IA (Group 3), Baseline): 0.00 points | Average clinical score per day (untreated) (1 mg/kg IA (Group 3), Day 3): 0.00 points | Average clinical score per day (untreated) (1 mg/kg IA (Group 3), Day 4): 0.00 points | Average clinical score per day (untreated) (1 mg/kg IA (Group 3), Day 5): 0.00 points | Average clinical score per day (untreated) (1 mg/kg IA (Group 3), Day 6): 0.71 points | Average clinical score per day (untreated) (1 mg/kg IA (Group 3), Day 7): 1.43 points | Average clinical score per day (untreated) (1 mg/kg IA (Group 3), Day 8): 2.43 points | Average clinical score per day (untreated) (1 mg/kg IA (Group 3), Day 10): 2.00 points | Average clinical score per day (untreated) (1 mg/kg IA (Group 3), Day 12): 2.43 points | Average clinical score per day (untreated) (10 mg/kg IA (Group 2), Baseline): 0.00 points | Average clinical score per day (untreated) (10 mg/kg IA (Group 2), Day 3): 0.00 points | Average clinical score per day (untreated) (10 mg/kg IA (Group 2), Day 4): 0.00 points | Average clinical score per day (untreated) (10 mg/kg IA (Group 2), Day 5): 0.00 points | Average clinical score per day (untreated) (10 mg/kg IA (Group 2), Day 6): 0.83 points | Average clinical score per day (untreated) (10 mg/kg IA (Group 2), Day 7): 1.83 points | Average clinical score per day (untreated) (10 mg/kg IA (Group 2), Day 8): 3.00 points | Average clinical score per day (untreated) (10 mg/kg IA (Group 2), Day 10): 3.00 points | Average clinical score per day (untreated) (10 mg/kg IA (Group 2), Day 12): 3.33 points
